Data: US9474790B2, “Stable, protracted GLP-1/glucagon receptor co-agonists for medical use” (Novo Nordisk A/S, priority 2013, dated 2016)
Numbered stars: 1 amine (or outer) side, 2 acyl side, 3 side chain; on linkers, the order of the positions; unused ones are H or OH. Square brackets hold non-standard residues; d marks the D form. Side chains are listed from the residue outwards. Peptide text beside a SMILES is read from it. * marks the point of attachment. C18 diacid = O=C(O)CCCCCCCCCCCCCCCCC(=O)*; γGlu = O=C(O)[C@H](CCC(=O)[*:2])N[*:1]; AEEA = NCCOCCOCC(=O)O; Aib = CC(C)(N)C(=O)O

test: Thioflavin T (ThT) fibrillation assay for physical stability; type: physicochemical; details: 250 μM in 10 mM HEPES buffer, pH 7.5, 37° C., shaking 960 rpm
From the text: The purpose of this assay was to assess the physical stability of the glucagon derivatives of the invention in aqueous solutions.
Low physical stability of a peptide may lead to amyloid fibril formation, which is observed as well-ordered, thread-like macromolecular structures in the sample, which eventually may lead to gel formation. This has traditionally been measured by visual inspection of the sample. However, that kind of measurement is very subjective and depending on the observer. Therefore, the application of a small molecule indicator probe is much more advantageous. Thioflavin T (ThT) is such a probe and has a distinct fluorescence signature when binding to fibrils [Naiki et al; Anal. Biochem. 1989 177 244-249; LeVine; Methods. Enzymol. 1999 309 274-284].
The time course for fibril formation can be described by a sigmoidal curve with the following expression [Nielsen et al; Biochemistry 2001 40 6036-6046]:
Here, as depicted in FIG. 1, F is the ThT fluorescence at the time t. The constant t0 is the time needed to reach 50% of maximum fluorescence. The two important parameters describing fibril formation are the lag-time calculated by t0−2τ and the apparent rate constant kapp 1/τ.
Samples were prepared freshly before each assay. Each sample composition is described in the legends. The pH of the sample was adjusted to the desired value using appropriate amounts of concentrated NaOH and HCl. Thioflavin T was added to the samples from a stock solution in H2O to a final concentration of 1 μM.
Sample aliquots of 200 μl (250 μM of the glucagon derivative/analogue in 10 mM HEPES buffer, pH 7.5) were placed in a 96 well microtiter plate (Packard OptiPlate™-96, white polystyrene). Usually, four or eight replica of each sample (corresponding to one test condition) were placed in one column of wells. The plate was sealed with Scotch Pad (Qiagen).
Incubation at given temperature, shaking and measurement of the ThT fluorescence emission were done in a Fluoroskan Ascent FL fluorescence plate reader (Thermo Labsystems). The temperature was set to 37° C. and the plate was incubated with orbital shaking adjusted to 960 rpm with an amplitude of 1 mm. Fluorescence measurement was done using excitation through a 444 nm filter and measurement of emission through a 485 nm filter.
Each run was initiated by incubating the plate at the assay temperature for 10 min. The plate was measured every 20 minutes for a desired period of time. Between each measurement, the plate was shaken and heated as described.
After completion of the ThT assay the four or eight replica of each sample was pooled and centrifuged at 20000 rpm for 30 minutes at 18° C. The supernatant was filtered through a 0.22 μm filter and an aliquot was transferred to a HPLC vial.
The concentration of peptide in the initial sample and in the filtered supernatant was determined by reverse phase HPLC using an appropriate standard as reference. The percentage fraction the concentration of the filtered sample constituted of the initial sample concentration was reported as the recovery.
The measurement points were saved in Microsoft Excel format for further processing and curve drawing and fitting was performed using GraphPad Prism. The background emission from ThT in the absence of fibrils was negligible. The data points were typically a mean of four or eight samples.
The data set may be fitted to Eq. (1).

| THT assay Lag time (Ex. 76) | SMILES |
| --- | --- |
| 45 h | CC(C)C[C@H](NC(=O)[C@H](Cc1ccc(O)cc1)NC(=O)[C@H](CCCCN)NC(=O)[C@H](CO)NC(=O)[C@H](CC(C)C)NC(=O)[C@H](CC(=O)O)NC(=O)[C@H](CO)NC(=O)[C@@H](NC(=O)[C@H](Cc1ccccc1)NC(=O)[C@@H](NC(=O)CNC(=O)[C@H](CCC(N)=O)NC(=O)C(C)(C)NC(=O)[C@@H](N)Cc1c[nH]cn1)[C@@H](C)O)[C@@H](C)O)C(=O)N[C@@H](CC(=O)O)C(=O)N[C@@H](CCCCNC(=O)CC[C@H](NC(=O)CC[C@H](NC(=O)COCCOCCNC(=O)COCCOCCNC(=O)CC[C@H](NC(=O)CCCCCCCCCCCCCCCCC(=O)O)C(=O)O)C(=O)O)C(=O)O)C(=O)N[C@@H](CCCCN)C(=O)N[C@@H](CCCNC(=N)N)C(=O)N[C@@H](C)C(=O)N[C@@H](CCC(N)=O)C(=O)N[C@@H](CCC(=O)O)C(=O)N[C@@H](Cc1ccccc1)C(=O)N[C@H](C(=O)N[C@@H](CCC(N)=O)C(=O)N[C@@H](Cc1c[nH]c2ccccc12)C(=O)N[C@@H](CC(C)C)C(=O)N[C@@H](CC(C)C)C(=O)N[C@@H](CC(N)=O)C(=O)N[C@H](C(N)=O)[C@@H](C)O)C(C)C [Example 7, N^ε16-[(4S)-4-carboxy-4-[[(4S)-4-carboxy-4-[[2-[2-[2-[[2-[2-[2-[[(4S)-4-carboxy-4-(17-carboxyheptadecanoylamino)butanoyl]amino]ethoxy]ethoxy]acetyl]amino]ethoxy]ethoxy]acetyl]amino]butanoyl]amino]butanoyl]-[Aib2,Leu10,Lys16,Lys17,Glu21,Leu27]-Glucagon amide] (H-H[Aib]QGTFTSDLSKYLDK([γGlu-γGlu-AEEA-AEEA-γGlu-C18 diacid])KRAQEFVQWLLNT-NH2; N-terminus assumed) |
| 45 h | CC(C)C[C@H](NC(=O)[C@H](Cc1c[nH]c2ccccc12)NC(=O)[C@H](C)NC(=O)[C@@H](NC(=O)[C@H](Cc1ccccc1)NC(=O)[C@H](CCC(=O)O)NC(=O)[C@H](CCCNC(=N)N)NC(=O)[C@H](C)NC(=O)[C@H](C)NC(=O)[C@H](CCCNC(=N)N)NC(=O)[C@H](CCCCNC(=O)CC[C@H](NC(=O)CC[C@H](NC(=O)COCCOCCNC(=O)COCCOCCNC(=O)CC[C@H](NC(=O)CCCCCCCCCCCCCCCCC(=O)O)C(=O)O)C(=O)O)C(=O)O)NC(=O)[C@H](CC(=O)O)NC(=O)[C@H](CC(C)C)NC(=O)[C@H](Cc1ccc(O)cc1)NC(=O)[C@H](CCCCN)NC(=O)[C@H](CO)NC(=O)[C@H](CC(C)C)NC(=O)[C@H](CC(=O)O)NC(=O)[C@H](CO)NC(=O)[C@@H](NC(=O)[C@H](Cc1ccccc1)NC(=O)[C@@H](NC(=O)CNC(=O)[C@H](CCC(N)=O)NC(=O)C(C)(C)NC(=O)[C@@H](N)Cc1c[nH]cn1)[C@@H](C)O)[C@@H](C)O)C(C)C)C(=O)N[C@@H](CC(C)C)C(=O)N[C@@H](CC(N)=O)C(=O)N[C@H](C(N)=O)[C@@H](C)O [Example 18, N^ε29-[(4S)-4-carboxy-4-[[(4S)-4-carboxy-4-[[2-[2-[2-[[2-[2-[2-[[(4S)-4-carboxy-4-(17-carboxyheptadecanoylamino)butanoyl]amino]ethoxy]ethoxy]acetyl]amino]ethoxy]ethoxy]acetyl]amino]butanoyl]amino]butanoyl]-[Aib2,Leu10,Lys16,Ala18,Arg20,Glu21,Ala-24,Leu27]-Glucagon amide] (H-H[Aib]QGTFTSDLSKYLDK([γGlu-γGlu-AEEA-AEEA-γGlu-C18 diacid])RAAREFVAWLLNT-NH2; N-terminus assumed) |
| 45 h | CC(C)C[C@H](NC(=O)[C@H](Cc1c[nH]c2ccccc12)NC(=O)[C@H](C)NC(=O)[C@@H](NC(=O)[C@H](Cc1ccccc1)NC(=O)[C@H](CCC(=O)O)NC(=O)[C@H](CCCNC(=N)N)NC(=O)[C@H](C)NC(=O)[C@H](CCCNC(=N)N)NC(=O)[C@H](CCCNC(=N)N)NC(=O)[C@H](CCCCNC(=O)CC[C@H](NC(=O)COCCOCCNC(=O)COCCOCCNC(=O)CC[C@H](NC(=O)CC[C@H](NC(=O)CCCCCCCCCCCCCCCCC(=O)O)C(=O)O)C(=O)O)C(=O)O)NC(=O)[C@H](CCC(=O)O)NC(=O)[C@H](CC(C)C)NC(=O)[C@H](Cc1ccc(O)cc1)NC(=O)[C@H](CCCCN)NC(=O)[C@H](CO)NC(=O)[C@H](CC(C)C)NC(=O)[C@H](CC(=O)O)NC(=O)[C@H](CO)NC(=O)[C@@H](NC(=O)[C@H](Cc1ccccc1)NC(=O)[C@@H](NC(=O)CNC(=O)[C@H](Cc1c[nH]cn1)NC(=O)C(C)(C)NC(=O)[C@@H](N)Cc1c[nH]cn1)[C@@H](C)O)[C@@H](C)O)C(C)C)C(=O)N[C@@H](CC(C)C)C(=O)N[C@@H](CO)C(=O)N[C@H](C(N)=O)[C@@H](C)O [Example 32, N^ε16-[(4S)-4-carboxy-4-[[2-[2-[2-[[2-[2-[2-[[(4S)-4-carboxy-4-[[(4S)-4-carboxy-4-(17-carboxyheptadecanoylamino)butanoyl]amino]butanoyl]amino]ethoxy]ethoxy]acetyl]amino]ethoxy]ethoxy]acetyl]amino]butanoyl]-[Aib2,His3,Leu10,Glu15,Lys16,Arg20,Glu21,Ala24, Leu27,Ser28]-Glucagon amide] (H-H[Aib]HGTFTSDLSKYLEK([γGlu-AEEA-AEEA-γGlu-γGlu-C18 diacid])RRAREFVAWLLST-NH2; N-terminus assumed) |
